ChEMBL document CHEMBL1201862, “PubChem BioAssay data set” (2004)
Calls of active or inactive are those of the source.

Assays:
Cytochrome P450 3A4 = Cytochrome P450 3A4 (Homo sapiens, UniProt P08684);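 further: CYP3A4 tested as one member of a cytochrome P450 panel screen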
Cytochrome P450 2D6 = Cytochrome P450 2D6 (Homo sapiens, UniProt P10635);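 further: CYP2D6 member of a cytochrome P450 panel assay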
Cytochrome P450 1A2 = target: T1, Cytochrome P450 1A2 (Homo sapiens, UniProt P05177);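 further: PubChem cytochrome P450 panel assay, CYP1A2 panel member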
T1 sequence (P05177 whole entry): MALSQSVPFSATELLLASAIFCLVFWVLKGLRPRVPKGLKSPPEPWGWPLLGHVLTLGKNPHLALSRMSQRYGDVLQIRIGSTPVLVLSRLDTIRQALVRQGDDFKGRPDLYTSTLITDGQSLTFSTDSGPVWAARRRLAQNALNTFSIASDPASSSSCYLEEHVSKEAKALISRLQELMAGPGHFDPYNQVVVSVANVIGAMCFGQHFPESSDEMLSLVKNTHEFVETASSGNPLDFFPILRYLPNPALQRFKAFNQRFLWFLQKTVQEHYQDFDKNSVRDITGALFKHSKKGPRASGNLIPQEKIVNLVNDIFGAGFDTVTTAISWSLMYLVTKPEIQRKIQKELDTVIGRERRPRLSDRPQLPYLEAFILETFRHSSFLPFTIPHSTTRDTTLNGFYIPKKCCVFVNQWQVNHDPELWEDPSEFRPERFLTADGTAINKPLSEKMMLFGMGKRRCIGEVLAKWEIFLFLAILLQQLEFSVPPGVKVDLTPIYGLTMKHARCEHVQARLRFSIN

Cytochrome P450 2C9 = Cytochrome P450 2C9 (Homo sapiens, UniProt P11712)
Sequence of Cytochrome P450 2C9 (P11712 whole entry): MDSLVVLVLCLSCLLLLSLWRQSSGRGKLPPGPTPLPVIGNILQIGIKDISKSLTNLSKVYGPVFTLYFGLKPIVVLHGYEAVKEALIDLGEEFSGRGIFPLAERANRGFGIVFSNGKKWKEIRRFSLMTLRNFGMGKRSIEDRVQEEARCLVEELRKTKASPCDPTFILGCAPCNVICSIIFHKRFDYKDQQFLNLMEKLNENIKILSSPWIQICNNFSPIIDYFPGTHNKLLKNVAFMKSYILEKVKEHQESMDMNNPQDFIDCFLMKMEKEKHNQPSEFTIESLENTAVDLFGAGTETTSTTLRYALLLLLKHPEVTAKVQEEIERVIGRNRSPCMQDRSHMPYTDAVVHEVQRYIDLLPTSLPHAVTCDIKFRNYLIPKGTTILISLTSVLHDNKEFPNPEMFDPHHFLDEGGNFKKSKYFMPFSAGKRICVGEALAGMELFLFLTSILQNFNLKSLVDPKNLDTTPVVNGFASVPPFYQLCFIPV

HeLa = assay: ATP-based viability loss in HeLa cells – cell-based, CellTiter-Glo luminescence, cherry-pick samples, cytotoxicity control for MITF activator project, dose response (AID 540259); format: functional; conditions: Homo sapiens
[1] = target: T2, Carboxy-terminal domain RNA polymerase II polypeptide A small phosphatase 1 (Homo sapiens, UniProt Q9GZU7); assay: CTDSP1 inhibitors, concentration-response, biochemical, absorbance readout, ultra-high-throughput screen actives (AID 540297); format: functional
T2 sequence (Q9GZU7 whole entry): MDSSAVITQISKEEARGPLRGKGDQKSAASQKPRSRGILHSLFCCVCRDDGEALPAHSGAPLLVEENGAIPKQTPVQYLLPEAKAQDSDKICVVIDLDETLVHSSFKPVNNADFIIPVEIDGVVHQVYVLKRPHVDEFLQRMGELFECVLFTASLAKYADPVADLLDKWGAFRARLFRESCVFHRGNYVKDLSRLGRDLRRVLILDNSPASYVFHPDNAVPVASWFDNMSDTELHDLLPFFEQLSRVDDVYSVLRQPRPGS

[2] = fluconazole-exposed Candida albicans growth modulators – fluorescence, retest, confirmation (AID 2467); format: functional, cell-based
[3] = NIH-3T3 fibroblast cytotoxicity, dose response, cytotoxicity control, cell-based, fluorescence, Alamar Blue, secondary assay (AID 2327); format: functional;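 further: NIH-3T3 mouse fibroblasts cultured with fluconazole at 8 µg/mL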
[4] = target: Dual specificity tyrosine-phosphorylation-regulated kinase 1A (Rattus norvegicus, UniProt Q63470); format: biochemical, Homo sapiens
H4 = assay: Luminescence Cell-Based Dose Response HTS to Identify Activators of 5'UTR Stem-Loop Driven Prion Protein mRNA Translation in H4 Neuroglioblastoma Cells. [Related pubchem assays: 1829 (Project Summary), 1814 (Primary HTS)]; format: functional; conditions: Homo sapiens
[5] = Luminescence Cell-Based Dose Response HTS to Identify Activators of Luciferase Translation or Activity in H4 […] Cells. [Related pubchem assays: 1829 (Project Summary), 1814 (Primary HTS)]; format: functional
Escherichia coli = assay: microbe, parasite or virus in culture
[6] = viability loss in THP-1 monocytes – THP-1 cells, cytotoxicity control for Vif-APOBEC3G degradation inhibitor project, dose response (AID 1117359); format: functional; conditions: THP-1
[7] = target: Induced myeloid leukemia cell differentiation protein Mcl-1 (Homo sapiens, UniProt Q07820); format: functional
Sequence of Induced myeloid leukemia cell differentiation protein Mcl-1 (Q07820 whole entry): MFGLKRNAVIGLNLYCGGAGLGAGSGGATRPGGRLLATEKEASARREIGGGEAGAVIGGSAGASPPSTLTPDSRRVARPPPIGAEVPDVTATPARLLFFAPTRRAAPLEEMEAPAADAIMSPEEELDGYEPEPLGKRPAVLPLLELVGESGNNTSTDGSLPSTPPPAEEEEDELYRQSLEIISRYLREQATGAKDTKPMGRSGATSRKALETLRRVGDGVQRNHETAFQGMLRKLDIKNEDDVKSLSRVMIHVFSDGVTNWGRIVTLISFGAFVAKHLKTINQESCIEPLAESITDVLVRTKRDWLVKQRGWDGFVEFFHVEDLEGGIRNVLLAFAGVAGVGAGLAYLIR

INS1 = assay: INS-1E survival protection against cytokine death – cell-based, luminescence, retest, dose response (AID 449756); format: functional; conditions: Rattus norvegicus;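 further: cell death triggered by IL-1 beta plus TNF-alpha plus IFN-gamma mixture; protective hits raise ATP signal compared with cytokine alone wells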
[8] = Luminescence Cell-Based Dose Retest to Confirm Inhibitors of Cancer Stem Cells. [Related pubchem assays (depositor defined):AID2717, AID2721]; format: functional; conditions: Homo sapiens
[9] = Fluorescence-based cell-based high throughput dose response assay for inhibitors of the interaction of nucleotide-binding oligomerization domain containing 2 (NOD2) and the receptor-interacting serine-threonine kinase 2 (RIPK2).; format: functional; conditions: Homo sapiens
[10] = viability of uninfected HEp-2 cells – cell-based, HTS, cytotoxicity control for RSV inhibitor project, dose response (AID 2410); format: functional; conditions: human respiratory syncytial virus
[11] = intracellular Trypanosoma cruzi inhibitors in host cells – cell-based, plate reader, cherry-pick samples, set 3, dose response (AID 651818); format: functional;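 further: compounds incubated with infected cells for about four days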
[12] = HEK-293T cell viability reduction – luminescence, B-cell screen hits, cytotoxicity control for BCR NF-kB inhibitor project, dose response (AID 489021); format: functional, cell-based;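 further: HEK-293T cells carrying an NF-kB luciferase reporter; cells exposed to compound for about 14 hours before viability readout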
cells [13] = format: functional, cell-based
cells [14] = format: functional, cell-based; remark: listed apart in the source

Sequence of Cytochrome P450 2D6 (P10635 whole entry): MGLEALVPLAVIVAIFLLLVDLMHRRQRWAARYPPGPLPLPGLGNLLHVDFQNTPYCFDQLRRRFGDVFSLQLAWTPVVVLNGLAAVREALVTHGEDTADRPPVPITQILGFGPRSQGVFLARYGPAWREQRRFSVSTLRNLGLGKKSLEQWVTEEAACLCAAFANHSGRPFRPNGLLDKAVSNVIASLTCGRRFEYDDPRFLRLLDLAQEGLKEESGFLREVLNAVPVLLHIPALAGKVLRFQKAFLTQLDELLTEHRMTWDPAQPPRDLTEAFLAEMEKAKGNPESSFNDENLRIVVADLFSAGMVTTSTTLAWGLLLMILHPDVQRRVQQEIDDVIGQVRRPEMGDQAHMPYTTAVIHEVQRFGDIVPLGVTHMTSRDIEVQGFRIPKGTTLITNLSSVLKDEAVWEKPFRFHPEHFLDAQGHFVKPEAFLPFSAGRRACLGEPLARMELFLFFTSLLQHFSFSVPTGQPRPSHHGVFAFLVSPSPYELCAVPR
Sequence of Cytochrome P450 3A4 (P08684 whole entry): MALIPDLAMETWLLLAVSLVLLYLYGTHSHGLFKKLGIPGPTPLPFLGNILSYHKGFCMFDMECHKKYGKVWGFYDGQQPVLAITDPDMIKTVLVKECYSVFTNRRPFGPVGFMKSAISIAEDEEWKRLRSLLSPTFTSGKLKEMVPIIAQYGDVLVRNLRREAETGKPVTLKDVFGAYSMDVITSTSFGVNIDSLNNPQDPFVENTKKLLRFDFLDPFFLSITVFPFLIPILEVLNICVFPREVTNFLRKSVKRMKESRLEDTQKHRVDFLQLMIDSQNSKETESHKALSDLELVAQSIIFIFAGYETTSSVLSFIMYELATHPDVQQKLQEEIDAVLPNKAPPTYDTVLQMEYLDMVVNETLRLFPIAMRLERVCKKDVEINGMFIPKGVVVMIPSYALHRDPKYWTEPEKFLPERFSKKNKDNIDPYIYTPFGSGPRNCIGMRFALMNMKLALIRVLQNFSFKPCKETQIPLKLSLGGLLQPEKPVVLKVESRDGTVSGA

Structure (SMILES): Cc1cc2ccccc2nc1SCC(=O)Nc1nc(-c2ccccc2)cs1
- AC50 (Cytochrome P450 3A4): 0.178 µM (inconclusive)
- AC50 (Cytochrome P450 2D6): inconclusive
- AC50 (Cytochrome P450 1A2): 0.2 µM (inconclusive)
- AC50 (Cytochrome P450 2C9): 1.12 µM (inconclusive)

Structure (SMILES): O=C(NCCc1c[nH]c2ccccc12)c1cc(Cl)c2c(c1)OCO2
- AC50 (HeLa): 70.3 µM (active)

Structure (SMILES): CCOC(=O)C1(C)C(C(=O)OC)=C(c2ccc(OC)cc2)c2ccccc2N1C(=O)OC (stereo not given)
- IC50 [1]: 29.5 µM (active)

Structure (SMILES): Nc1nn2c(O)cc(-c3ccccc3)nc2c1N=Nc1ccc(S(N)(=O)=O)cc1
- EC50 [2]: > 38 µM (not active)
- EC50 [3]: > 160 µM (inactive)
- AC50 [4]: 1.3 µM (active)

Structure (SMILES): COc1ccc(-c2nnn(Cc3ccccc3F)n2)cc1
- EC50 (H4): 44.6 µM (inconclusive)
- AC50 (HeLa): 60.2 µM (active)
- EC50 [5]: 1.75 µM (active)

Structure (SMILES): Cc1ccc(-c2cc(C(F)F)n3ncc(C(=O)Nc4ccc(S(=O)(=O)Nc5ccccc5C)cc4)c3n2)cc1
- AC50 (Escherichia coli): 21.5 µM (active)

Structure (SMILES): COc1cc(/C=C(\C#N)c2nn(CCO)c(N)c2C#N)cc(OC)c1OC
- AC50 (Escherichia coli): 29 µM (active)

Structure (SMILES): CC(=O)c1ccc(NC(=O)CSc2nnc(-c3ccco3)c(-c3ccco3)n2)cc1
- CC50 [6]: > 40 µM (active)
- IC50 [1]: 3.88 µM (active)
- IC50 [7]: 8.94 µM (active)

Structure (SMILES): CCCCNc1c(-c2ccc(-c3cccc(Cl)c3)cc2)nc2ccccn12
- AC50 (HeLa): 32.4 µM (active)
- AC50 (INS1): 6.04 µM (active)
- AC50 [8]: 3.86 µM (active)

Structure (SMILES): CCC(=O)Nc1ccc(C(=O)Cn2ncc(Cl)c(Cl)c2=O)cc1
- AC50 [8]: 5.04 µM (active)
- IC50 [9]: 6.53 µM (active)

Structure (SMILES): CCCCSc1nc2c(c(=O)[nH]c(=O)n2C)n1CCc1ccccc1
- AC50 (Escherichia coli): 50.8 µM (active)

Structure (SMILES): CN(CCC#N)C(=O)c1cc2c(s1)-c1ccccc1SC2
- AC50 (HeLa): 63.4 µM (active)
- CC50 [10]: 28 µM (active)

Structure (SMILES): CC(=O)O[C@H](COc1c2ccoc2cc2oc(=O)ccc12)C(C)(C)O
- AC50 [4]: 3.74 µM (active)

Structure (SMILES): C[C@H]1CN([C@@H](C)CO)C(=O)Cc2cc(NS(=O)(=O)c3ccc(Cl)cc3)ccc2O[C@H]1CN(C)CC1CCCCC1
- AC50 [11]: 5.05 µM (active)

Structure (SMILES): C[C@@H]1CN([C@H](C)CO)C(=O)c2cccc(NC(=O)c3cnccn3)c2O[C@@H]1CN(C)Cc1ccc(C(=O)Nc2ccccc2N)cc1
- AC50 [11]: 3.06 µM (active)

Structure (SMILES): C[C@@H]1CCCCO[C@@H](CN(C)Cc2ccc(C(=O)Nc3ccccc3N)cc2)[C@@H](C)CN([C@H](C)CO)C(=O)c2cc(NC(=O)Nc3ccc(C(F)(F)F)cc3)ccc2O1
- AC50 [11]: 0.554 µM (active)

Structure (SMILES): C[C@@H]1CN([C@@H](C)CO)C(=O)Cc2cc(NC(=O)Nc3ccc(C(F)(F)F)cc3)ccc2O[C@@H]1CN(C)S(=O)(=O)c1cccs1
- AC50 [11]: 3.54 µM (active)

Structure (SMILES): CCOc1ccc(/C=C2\SC(=S)N(CCC(=O)Nc3cccc(C(=O)O)c3)C2=O)cc1
- IC50 [12]: > 80 µM (inactive)
- IC50 [1]: 3.77 µM (active)

Structure (SMILES): C[C@@H]1O[C@@H](OC[C@H]2O[C@@H](Oc3c(-c4ccc(O)cc4)oc4cc(O)cc(O)c4c3=O)[C@H](O)[C@@H](O)[C@@H]2O)[C@H](O)[C@H](O)[C@H]1O [NICOTIFLOROSIDE]
- EC50 (cells [13]): > 350 µM (not active)
- AC50 [4]: 7.78 µM (active)
- EC50 (cells [14]): > 350 µM (not active)
